Values quoted from earlier work as cited in US9585842B2, “Sustained release guanfacine HCL formulation” (SALMON PHARMA GMBH, priority 2013, dated 2017).
Where a name gives a salt, the structure may show the parent alone.

Settings: low pH versus higher pH values

Which pH dependent solubility does the source give for `N=C(N)NC(=O)Cc1c(Cl)cccc1Cl` [Guanfacine hydrochloride] here?
Its pH dependent solubility is “more soluble at low pH values than higher pH values”.
